Among the data in PubChem BioAssay (NCI) are TGI values, retold here.

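In this assay, cells in 96-well plates receive the compound at five concentrations for 48 hours. Endpoints are linearly interpolated between the surrounding concentrations. TGI marks complete inhibition of growth.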

Test systems include HOP-18 NSCLC; DLD-1 colon; SNB-78 CNS; XF 498 CNS; MDA-N; DMS 114 small cell lung; LXFL 529 NSCLC; RXF-631 renal.
Test in all cases: NCI tumour cell line growth inhibition, 48 h

In the case of `Cc1cc(Cl)cc2c1NC(=O)C2(O)CC(=O)c1ccc(F)cc1` (stereo not drawn), the TGI was 90.7 µM with HOP-18 NSCLC, above 100 µM with DLD-1 colon, above 100 µM in the test on SNB-78 CNS and 66.4 µM in the test on XF 498 CNS.
As to `Cc1[nH]c(=O)nc(N/N=C/c2ccc(Cl)cc2)c1C(=O)Nc1ccc(Cl)cc1`, the TGI is 7.3 µM with HOP-18 NSCLC; above 100 µM in the test on DLD-1 colon; above 100 µM in the test on MDA-N; 56.1 µM in the test with DMS 114 small cell lung; above 100 µM in the test with SNB-78 CNS; 25.2 µM in the test with XF 498 CNS. Besides, the TGI in the test on LXFL 529 NSCLC was above 73.3 µM.
As to `CN(C)CCC(=O)N1CCc2c([nH]c3ccccc23)C1c1cccnc1` (stereo not drawn), the TGI in the test with HOP-18 NSCLC, with DLD-1 colon, in the test on DMS 114 small cell lung, in the test with SNB-78 CNS, in the test with RXF-631 renal and with XF 498 CNS was above 100 µM in each case. The same compound yielded a TGI with LXFL 529 NSCLC above 100 µM.
For `CC1NCCc2c1[nH]c1cc(O)ccc21` (stereo not drawn), the TGI in the test on HOP-18 NSCLC, in the test on DLD-1 colon, in the test on DMS 114 small cell lung, with SNB-78 CNS, in the test on XF 498 CNS and with LXFL 529 NSCLC was above 100 µM in each case.
As for `CCOC(=O)N1CCc2cc(OC)c(OC)cc2/C1=C/c1ccc(OC)c(OC)c1`, the TGI is above 100 µM in the test with HOP-18 NSCLC; above 100 µM in the test with DLD-1 colon; above 100 µM in the test with DMS 114 small cell lung; above 100 µM with SNB-78 CNS; 98 µM with XF 498 CNS; above 100 µM in the test with LXFL 529 NSCLC.
The compound `Cc1cccc2c(N=Nc3ccccc3[N+](=O)[O-])c(O)[nH]c12` had a TGI in the test with MDA-N above 100 µM.
For `O=C(Nc1ccccc1[N+](=O)[O-])C(=O)C(C(=O)c1ccccc1-c1ccccc1)C1OC(=O)c2ccccc21` (stereo not drawn), the TGI in the test with HOP-18 NSCLC was 31.6 µM; in the test with DLD-1 colon it was 44.8 µM; with DMS 114 small cell lung, 31.7 µM; in the test on SNB-78 CNS, above 100 µM; with RXF-631 renal, 35.3 µM; in the test with LXFL 529 NSCLC, 23 µM.
For the compound `O=C1[C@@H]2C(c3ccncc3)=NO[C@@H]2C(=O)N1c1ccc(Cc2ccc(N3C(=O)[C@H]4C(c5ccncc5)=NO[C@H]4C3=O)cc2)cc1`, the TGI in the test with HOP-18 NSCLC, with DLD-1 colon, with DMS 114 small cell lung, in the test with SNB-78 CNS, with RXF-631 renal and with LXFL 529 NSCLC was above 100 µM in each case.
Consider `O=C1c2ccccc2C(=O)c2sc(Nc3ccc(Cl)cc3)nc21`, for which the TGI was determined as 7.26 µM in the test on HOP-18 NSCLC; 3.41 µM with DLD-1 colon; 3.63 µM in the test on DMS 114 small cell lung; 8.03 µM in the test with SNB-78 CNS; 4.7 µM in the test on XF 498 CNS; 3.1 µM with LXFL 529 NSCLC.
For `CC1=C/C(O)CC(=O)Cc2nc(co2)C(=O)N2CCC=C2C(=O)OC(C(C)C)C(C)/C=C\C(=O)NC/C=C\1` (stereo not drawn), the TGI in the test on MDA-N worked out at 67.9 µM.
As to `C/C(CC(=O)Nc1ccccc1)=N\NC(N)=S`, the TGI with DLD-1 colon, in the test on DMS 114 small cell lung, with SNB-78 CNS, in the test with XF 498 CNS and in the test on LXFL 529 NSCLC was above 100 µM in each case.
Take `Cc1cccc(C)c1NC(=O)CCCC(=O)C(C#N)c1ccc(Cl)cc1` (stereo not drawn): the TGI with HOP-18 NSCLC, in the test with DLD-1 colon, in the test with DMS 114 small cell lung, in the test on SNB-78 CNS and in the test with LXFL 529 NSCLC was above 100 µM throughout.
In the case of `O=C(O)c1nnsc1-c1csnn1`, the TGI in the test on MDA-N was above 100 µM.
Turning to `C=C[Si](C)(C)COC(=O)/C(C#N)=C/C=C/c1ccccc1`, the TGI with HOP-18 NSCLC, in the test with DLD-1 colon, in the test with DMS 114 small cell lung, with SNB-78 CNS and in the test with LXFL 529 NSCLC was above 100 µM throughout.
Take `Oc1c(Cl)cc(CN(Cc2cc(Cl)c(O)c(Cl)c2)C2CCCCC2)cc1Cl`: the TGI in the test on MDA-N was above 100 µM.
The same measure, in the same setting: as for `Clc1ccc(N/N=C(\c2ccccc2)c2ccccn2)nc1`, the figure is 26.5 µM.
For `CC1(C)Cc2nnsc2C2=C1C(=O)CCS2`, the TGI in the test on HOP-18 NSCLC, in the test with DLD-1 colon, in the test with DMS 114 small cell lung and in the test on LXFL 529 NSCLC was above 100 µM throughout.
Take `NCCn1cnc2nc(NC(=O)c3ccccc3)[nH]c(=O)c21`: the TGI with HOP-18 NSCLC, in the test on DLD-1 colon, with DMS 114 small cell lung, with SNB-78 CNS, with RXF-631 renal and with LXFL 529 NSCLC was above 100 µM throughout.
As for `CCOC(=O)C1=C(C)N(NC(=O)OC)C2(N)N(NC(=O)OC)C(C)=C(C(=O)OCC)C12C#N` (stereo not drawn), the TGI with DLD-1 colon, in the test on DMS 114 small cell lung, in the test with XF 498 CNS and in the test on LXFL 529 NSCLC was above 100 µM throughout.
In the test with MDA-N, `CN(N=O)C(=O)Nc1ccc(C(=O)O)cc1` registered a TGI above 100 µM.
